Results reported in BigSolDB 2.1.

Row | Structure (SMILES) | solubility (mole fraction) (in n-hexane, 293.15 K) | solubility (mole fraction) (in n-hexane, 298.15 K) | solubility (mole fraction) (in n-hexane, 303.15 K) | solubility (mole fraction) (in n-hexane, 308.15 K) | solubility (mole fraction) (in n-hexane, 313.15 K) | solubility (mole fraction) (in n-octanol, 293.15 K) | solubility (mole fraction) (in n-octanol, 298.15 K) | solubility (mole fraction) (in n-octanol, 303.15 K) | solubility (mole fraction) (in n-octanol, 308.15 K) | solubility (mole fraction) (in n-octanol, 313.15 K)
1 | Br.c1ccc(NC2=NCCC3(CCCCC3)[Se]2)cc1 | 4.94e-06 | 5.94e-06 | 7.1e-06 | 8.46e-06 | 9.98e-06 | 0.0186 | 0.0229 | 0.0278 | 0.0329 | 0.0385
2 | Br.Fc1ccc(NC2=NCCC3(CCCCC3)[Se]2)cc1 | 1.27e-06 | 1.59e-06 | 1.9e-06 | 2.35e-06 | 2.89e-06 | 0.003 | 0.0036 | 0.0042 | 0.0048 | 0.0055
3 | Br.CC(C)c1ccc(NC2=NCCC3(CCCCC3)[Se]2)cc1 | 4.69e-06 | 5.82e-06 | 7.39e-06 | 8.84e-06 | 1.11e-05 | 0.0484 | 0.0551 | 0.0647 | 0.0728 | 0.0831
